Test results: paper PMC10786919, “Design-rules for stapled peptides with in vivo activity and their application to Mdm2/X antagonists” (Nature Communications, 2024)
Converted amounts (≈) assume the structure as drawn. Where two headings read alike, the source gives them in different places. Positions of bridges follow the written chain, without caps; N, C: chain ends. Non-standard residues stand in square brackets, D forms with d. Residues, ends and D or L forms follow the SMILES beside them. Lys(N3) = [N-]=[N+]=NCCCC[C@H](N)C(=O)O; R8 = C=CCCCCCC[C@@](C)(N)C(=O)O; Cba = N[C@@H](CC1CCC1)C(=O)O; S5 = C=CCCC[C@](C)(N)C(=O)O; βAla = NCCC(=O)O

Key:
[1] = Lactate dehydrogenase (LDH) release assay; type: cell-based
How it was run: (§1)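 HCT116 cells stably carrying a p53-responsive β-lactamase reporter, seeded at 8000 cells/well, exposed to compound with 0.5% final DMSO. LDH release read with the CytoTox-ONE membrane integrity kit. Values are geometric means of at least three biological replicates.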

HCT116 cells = test: Lactate dehydrogenase (LDH) release assay; type: cell-based
How it was run: as §1

[2] = Solubility assay (kinetic solubility, PBS pH 7); type: physicochemical; details: pH 7, aqueous buffer, kinetic from dmso stock, pH 7, PBS; read-out: Solubility
How it was run: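 Std: 10 mM stock → 100 µM in ACN/MeOH/DMSO (10:80:10). Sol. [µM] = (sample peak area / std peak area) × std conc.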

physchem [3] = test: physchem
[4] = Experimental LogD (partition coefficient); details: not stated, Partition Coeff LogD
[5] = Nanoclick permeability assay
How it was run: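 Azido-peptide permeability was read as loss of NanoBRET signal (donor 450 nm, acceptor 610 nm) after adding NanoBret618-azide at 10 μM final.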

physchem [6] = test: physchem; remark: listed apart in the source

Q: Which EC50 ([1]; LDH: Cytotoxicity assay: EC50) does the source give for `CC(=O)N[C@@H](C)C(=O)N[C@@H](C)C(=O)N[C@@H](C)C(=O)N[C@@H](C)C(=O)N[C@@H](CC(C)C)C(=O)N[C@H](C(=O)N[C@@H](Cc1ccccc1)C(=O)N[C@]1(C)CCCCCCC=CCCC[C@@](C)(C(=O)N[C@@H](CO)C(=O)N[C@@H](C)C(=O)N[C@@H](C)C(N)=O)NC(=O)[C@H](CC2CCC2)NC(=O)[C@H](CCC(N)=O)NC(=O)[C@H](C)NC(=O)[C@H](Cc2c[nH]c3ccccc23)NC(=O)[C@H](Cc2ccc(O)cc2)NC(=O)[C@H](CCC(=O)O)NC1=O)[C@@H](C)O` [MP-360] here?
A: > 50.6 µM

Q: And the “LDH: Cytotoxicity assay: % Effect” value (HCT116 cells)?
A: 2.492%

Q: What about the solubility kinetic [2] of the same compound?
A: 24.7 µM (≈ 50.1 µg/mL)

Q: And the EPSA (physchem [3])?
A: 219 A^2

Q: And the logD [4]?
A: 3.24

Q: Which results are given for `CC(=O)N(C)CC(=O)N(C)CC(=O)N(C)CC(=O)N(C)CC(=O)N[C@@H](CC(C)C)C(=O)N[C@H](C(=O)N[C@@H](Cc1ccccc1)C(=O)N[C@]1(C)CCCCCCC=CCCC[C@@](C)(C(=O)N[C@@H](CO)C(=O)N[C@@H](C)C(=O)N[C@@H](C)C(N)=O)NC(=O)[C@H](CC2CCC2)NC(=O)[C@H](CCC(N)=O)NC(=O)[C@H](C)NC(=O)[C@H](Cc2c[nH]c3ccccc23)NC(=O)[C@H](Cc2ccc(O)cc2)NC(=O)[C@H](CCC(=O)O)NC1=O)[C@@H](C)O` [MP-361]?
A: EC50 ([1]; LDH: Cytotoxicity assay: EC50): > 50.6 µM; LDH: Cytotoxicity assay: % Effect (HCT116 cells): 2.48%; solubility kinetic [2]: 70.7 µM (≈ 143 µg/mL); EPSA (physchem [3]): 212 A^2; logD [4]: 2.52

Q: Which EC50 ([1]; LDH: Cytotoxicity assay: EC50) does the source give for `CC(=O)N[C@@H](CC(C)C)C(=O)N[C@H](C(=O)N[C@@H](Cc1ccccc1)C(=O)N[C@]1(C)CCCCCCC=CCCC[C@@](C)(C(=O)N[C@@H](CO)C(=O)N[C@@H](C)C(=O)N[C@@H](C)C(N)=O)NC(=O)[C@H](CC2CCC2)NC(=O)[C@H](CC(C)C)NC(=O)[C@H](CCC(N)=O)NC(=O)[C@H](Cc2c[nH]c3ccccc23)NC(=O)[C@H](C)NC(=O)[C@H](CCC(=O)O)NC1=O)[C@@H](C)O` [MP-363] (Ac-LTF[R8]EAWQL[Cba][S5]SAA-NH2; staple 4-11) here?
A: > 50.6 µM

Q: And the “LDH: Cytotoxicity assay: % Effect” value (HCT116 cells)?
A: 4.97%

Q: What about the EPSA (physchem [3]) of the same compound?
A: 195 A^2

Q: What about the logD [4] of the same compound?
A: 2.85

Q: Which EC50 ([1]; LDH: Cytotoxicity assay: EC50) does the source give for `CC(=O)N[C@@H](CC(C)C)C(=O)N[C@H](C(=O)N[C@@H](Cc1ccccc1)C(=O)N[C@]1(C)CCCCCCC=CCCC[C@@](C)(C(=O)N[C@@H](CO)C(=O)N[C@@H](C)C(=O)N[C@@H](C)C(N)=O)NC(=O)[C@H](CC2CCC2)NC(=O)[C@H](CCC(N)=O)NC(=O)[C@H](CCC(N)=O)NC(=O)[C@H](Cc2c[nH]c3ccccc23)NC(=O)[C@H](Cc2ccc(O)cc2)NC(=O)[C@H](CCC(=O)O)NC1=O)[C@@H](C)O` [MP-864] (Ac-LTF[R8]EYWQQ[Cba][S5]SAA-NH2; staple 4-11) here?
A: > 50.6 µM

Q: What about the solubility kinetic [2] of the same compound?
A: 86.5 µM (≈ 156 µg/mL)

Q: And the EPSA (physchem [3])?
A: 212 A^2

Q: What about the logD [4] of the same compound?
A: 2.59

Q: For `CC(=O)N[C@@H](CC(C)C)C(=O)N[C@H](C(=O)N[C@@H](Cc1ccccc1)C(=O)N[C@]1(C)CCCCCCC=CCCC[C@@](C)(C(=O)N[C@@H](CO)C(=O)N[C@@H](C)C(=O)N[C@@H](C)C(N)=O)NC(=O)[C@H](CC2CCC2)NC(=O)[C@H](C)NC(=O)[C@H](C)NC(=O)[C@H](Cc2c[nH]c3ccccc23)NC(=O)[C@H](Cc2ccc(O)cc2)NC(=O)[C@H](CCC(=O)O)NC1=O)[C@@H](C)O` [MP-865] (Ac-LTF[R8]EYWAA[Cba][S5]SAA-NH2; staple 4-11), which EC50 ([1]; LDH: Cytotoxicity assay: EC50) is on record?
A: > 50.6 µM

Q: What about the solubility kinetic [2] of the same compound?
A: 84.5 µM (≈ 143 µg/mL)

Q: And the EPSA (physchem [3])?
A: 211 A^2

Q: What about the logD [4] of the same compound?
A: 2.94

Q: With `CC(=O)N[C@@H](CCCCN=[N+]=[N-])C(=O)NCCC(=O)N[C@@H](CC(C)C)C(=O)N[C@H](C(=O)N[C@@H](Cc1ccccc1)C(=O)N[C@]1(C)CCCCCCC=CCCC[C@@](C)(C(=O)N[C@@H](C)C(=O)N[C@@H](C)C(=O)N[C@@H](C)C(N)=O)NC(=O)[C@H](CC2CCC2)NC(=O)[C@H](C)NC(=O)[C@H](C)NC(=O)[C@H](Cc2c[nH]c3ccccc23)NC(=O)[C@H](Cc2ccc(O)cc2)NC(=O)[C@H](CCC(=O)O)NC1=O)[C@@H](C)O` [MP-8966, AZIDE-ATSP-7041 (Q9A,S12A)] (Ac-[Lys(N3)][βAla]LTF[R8]EYWAA[Cba][S5]AAA-NH2; staple 6-13) as the compound, how does the EC50 ([1]; 0% FBS 4Hr, read-out: LDH: Cytotoxicity assay EC50) read?
A: > 50 µM

Q: What about the EC50 ([1]; 10% FBS 4Hr, read-out: LDH: Cytotoxicity assay EC50) of the same compound?
A: > 50 µM

Q: What about the “LDH: Cytotoxicity assay % Effect” value (HCT116 cells; 0% FBS 4Hr) of the same compound?
A: 5.4%

Q: And the “LDH: Cytotoxicity assay % Effect” value (HCT116 cells; 10% FBS 4Hr)?
A: 4.079%

Q: What about the solubility kinetic [2] of the same compound?
A: 111 µM (≈ 211 µg/mL)

Q: What about the cell entry EC50 [5] of the same compound?
A: 0.203 µM

Q: And the EPSA (physchem [6])?
A: 215 A^2

Q: And the logD [4]?
A: 2.92
